Experimental findings from patent publication US4281121A, “1,3,4-Thiadiazole-2-carboxylic acid derivatives, process for making the same and fungicidal and nematocidal compositions containing same” (Schering Aktiengesellschaft, priority 1978, dated 1981) are described below.

In one test the test system is Tilletia caries. The test can be described thus: Treatment of oat seeds infested with Tilletia caries (spore germination). The test is classed as in vivo.
The next test has as its system Botrytis cinerea. The test can be described thus: Prophylactic leaf treatment of tomato plants against Botrytis cinerea. The format is in vivo. The following applies: concentration of 0.025 of the active agent (unit not given).
The next test deals with Helminthosporium gram. The following applies: 50 g active agent per 100 kg; about 5 weeks.
The next test deals with Plasmopara viticola. Description: Prophylactic leaf treatment of grapevines in the hothouse against Plasmopara viticola. The test is classed as in vivo. The method in brief: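 Grapevines (5–8 leaves) sprayed to runoff with compound as 20% spray powder, then after drying inoculated on leaf undersides with sporangial suspension (~20,000/ml). Incubated at 22–24 °C, saturated humidity, 3–4 days normal humidity (30–70%), then one day saturated; activity from mean % infested leaf area per treatment.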

The subject of a further test is Fusarium avenaceum. Description: Threshold concentration test in case of Fusarium avenaceum (infested soil, garden peas). The test is classed as in vivo. The note with it: for number of sound peas: 20 grains per dish, 18 days at 20-24° C.; for root evaluation (1-4): 18 days. The gist of the method:
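Soil heavily infested with Fusarium avenaceum was mixed uniformly with a 20% powder formulation of active agent, then sown immediately with 20 garden pea seeds ('Wunder von Kelvedon') per dish. After 18 days in a greenhouse at 20° to 24° C., sound plants were counted and roots scored on a 1–4 scale.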

In another test the test system is Pythium ultimum. Description: Threshold concentration test for use of the compounds against Pythium ultimum (infested soil, garden peas). The format is in vivo. The following applies: for root evaluation (1-4): 3 weeks; for number of sound peas: 20 grains per dish, 3 weeks at 20-24° C. The arrangement: key to root evaluation (1-4): 4: white roots without fungous necrosis; 3: white roots, minor fungous necrosis; 2: brown roots, already more pronounced fungous necrosis; 1: heavy fungous necrosis, roots rotted. The method in brief: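 Pulverulent agents at 20% concentration mixed evenly into soil heavily infested with Pythium ultimum, then garden peas ('Wunder von Kelvedon', 20 per dish) sown at once. After three weeks at 20–24 °C in a hothouse, sound peas counted and roots scored on a 1–4 scale.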

For the next test, the system named is Piricularia oryzae. The format is in vivo. The note with it: concentration of active agent 0.1 (percentages); 5 days.
The subject of test [1] is Helminthosporium gramineum. Description: Seed treatment in open field tests for infestation by Helminthosporium gramineum (barley). The format is in vivo. The following applies: summer barley; 50 g active agent/100 kg barley; about 3 months. The procedure: Seed treatment in open field tests for infestation by Helminthosporium gramineum
The active agents were used in the form of pulverulent compositions. After about 8 months in case of winter barley and after about 3 months in case of summer barley the infested plants were counted and the activity was calculated by the formula [formula]

A further test relates to Venturia inaequalis. Description: Prophylactic leaf treatment of apples in open field test against Venturia inaequalis. The format is in vivo. The following applies: 3 weeks.
The mark [2] stands for this setting: concentration of active agent 0.025 (unit not given).
[3] abbreviates: concentration of active agent 0.005 (unit not given).

Turning to `CCS(=O)(=O)c1nnc(C(=O)NC2CCCCCCC2)s1` [5-ethylsulfonyl-1,3,4-thiadiazole-2-carboxylic acid-cyclooctylamide], the “% activity” value is on record as 100% in the test on Tilletia caries (10 g active agent per 100 kg); 100% in the test with Tilletia caries (20 g active agent per 100 kg); 100% with Tilletia caries (50 g active agent per 100 kg); 93% in the test with Botrytis cinerea; 98% with Helminthosporium gram.

Turning to `CCCCCCCCNC(=O)c1nnc(S(=O)(=O)CC)s1` [5-ethylsulfonyl-1,3,4-thiadiazole-2-carboxylic acid-octylamide], the “% activity” value in the test with Tilletia caries (10 g active agent per 100 kg) came to 91%; in the test on Tilletia caries (20 g active agent per 100 kg) it was 93%; in the test on Tilletia caries (50 g active agent per 100 kg), 98%; in the test on Plasmopara viticola (setting [2]), 90%; in the test on Botrytis cinerea, 87%.

As to `CCCCCCS(=O)(=O)c1nnc(C#N)s1` [5-hexylsulfonyl-1,3,4-thiadiazole-2-carbonitrile], the “number of sound peas” value in the test on Fusarium avenaceum (25 mg/l soil), in the test on Fusarium avenaceum (50 mg/l soil) and with Fusarium avenaceum (100 mg/l soil) was 19 each time. In addition, the “root evaluation (1-4)” value in the test on Fusarium avenaceum (25 mg/l soil), in the test on Fusarium avenaceum (50 mg/l soil) and in the test with Fusarium avenaceum (100 mg/l soil) was 4 throughout. The “% activity” value amounted to 90% in the test with Tilletia caries (50 g active agent per 100 kg), 90% with Plasmopara viticola (setting [2]) and 86% in the test on Botrytis cinerea.

As to `CCCCCCS(=O)(=O)c1nnc(C(N)=O)s1` [5-hexylsulfonyl-1,3,4-thiadiazole-2-carboxamide], the results for the “number of sound peas” value in the test on Fusarium avenaceum (25 mg/l soil), with Fusarium avenaceum (50 mg/l soil) and in the test on Fusarium avenaceum (100 mg/l soil) were 7, 12 and 15, respectively. Also, the “root evaluation (1-4)” value worked out at 1 in the test with Fusarium avenaceum (25 mg/l soil), 2 in the test with Fusarium avenaceum (50 mg/l soil) and 3 with Fusarium avenaceum (100 mg/l soil). Besides, the entries for the “% activity” value in the test with Tilletia caries (50 g active agent per 100 kg), with Plasmopara viticola (setting [2]) and in the test with Botrytis cinerea were 98%, 90% and 87%, respectively.

On to `CS(=O)(=O)c1nnc(C(=O)NC2CC2)s1` [5-methylsulfonyl-1,3,4-thiadiazole-2-carboxylic acid-cyclopropylamide], for which the “root evaluation (1-4)” value in the test with Pythium ultimum (20 mg/l soil) turned out to be 1; in the test on Pythium ultimum (40 mg/l soil), 4; with Pythium ultimum (80 mg/l soil), 4. Also, the “number of sound peas” value with Pythium ultimum (20 mg/l soil) worked out at 13; in the test on Pythium ultimum (40 mg/l soil), 20; in the test on Pythium ultimum (80 mg/l soil), 20. In addition, the “% activity” value in the test with Tilletia caries (20 g active agent per 100 kg) came out at 98%; in the test with Tilletia caries (50 g active agent per 100 kg) it was 100%; in the test with Botrytis cinerea, 75%.

As for `CC(C)NC(=O)c1nnc(S(C)(=O)=O)s1` [5-methylsulfonyl-1,3,4-thiadiazole-2-carboxylic acid-isopropylamide], the “root evaluation (1-4)” value in the test with Pythium ultimum (20 mg/l soil), with Pythium ultimum (40 mg/l soil) and with Pythium ultimum (80 mg/l soil) was 4 in each case. For the same compound, the “number of sound peas” value in the test on Pythium ultimum (20 mg/l soil) was found to be 15; with Pythium ultimum (40 mg/l soil) it was 18; in the test on Pythium ultimum (80 mg/l soil), 15. Also, the “% activity” value is listed as 100% in the test on Tilletia caries (10 g active agent per 100 kg); 100% in the test on Tilletia caries (20 g active agent per 100 kg); 100% in the test with Tilletia caries (50 g active agent per 100 kg); 90% in the test on Piricularia oryzae; 100% in test [1]; 76% with Plasmopara viticola (setting [3]). The “% activity” value in the test with Plasmopara viticola (setting [2]) is recorded as 96%; in the test with Venturia inaequalis (concentration of active agent 0.005 (in gram)) it was 85%; in the test with Venturia inaequalis (concentration of active agent 0.025 (in gram)), 100%; in the test on Helminthosporium gram it was 90%.

As to `CCCCCS(=O)(=O)c1nnc(C(N)=O)s1` [5-pentylsulfonyl-1,3,4-thiadiazole-2-carboxamide], the “number of sound peas” value in the test on Fusarium avenaceum (25 mg/l soil) is reported as 9; with Fusarium avenaceum (50 mg/l soil) it was 16; in the test with Fusarium avenaceum (100 mg/l soil) it was 18. The figures for the “root evaluation (1-4)” value with Fusarium avenaceum (25 mg/l soil), in the test on Fusarium avenaceum (50 mg/l soil) and in the test with Fusarium avenaceum (100 mg/l soil) were 2, 3 and 4, respectively. Further, the “% activity” value with Tilletia caries (50 g active agent per 100 kg) was found to be 80%; in the test on Botrytis cinerea, 87%.

On to `CCCCNC(=O)c1nnc([S+]([O-])CCC)s1` (stereo not drawn) [5-propylsulfinyl-1,3,4-thiadiazole-2-carboxylic acid-butylamide], for which the “% activity” value with Tilletia caries (20 g active agent per 100 kg) is 100%; in the test with Tilletia caries (50 g active agent per 100 kg), 100%; in the test on Plasmopara viticola (setting [3]), 91%; in the test on Plasmopara viticola (setting [2]) it was 99.1%; in the test on Botrytis cinerea, 80%.

`CCC[S+]([O-])c1nnc(C(=O)N(C)C)s1` (stereo not drawn) [5-propylsulfinyl-1,3,4-thiadiazole-2-carboxylic acid-dimethylamide]: the “root evaluation (1-4)” value in the test with Pythium ultimum (20 mg/l soil) is 1; in the test with Pythium ultimum (40 mg/l soil), 4; in the test with Pythium ultimum (80 mg/l soil) it was 4. In addition, the “number of sound peas” value in the test on Pythium ultimum (20 mg/l soil) is recorded as 12; in the test on Pythium ultimum (40 mg/l soil), 18; in the test on Pythium ultimum (80 mg/l soil), 19. The “% activity” value is given as 100% in the test on Tilletia caries (20 g active agent per 100 kg), 100% in the test with Tilletia caries (50 g active agent per 100 kg), 80% in the test with Botrytis cinerea and 100% with Helminthosporium gram.

Consider `CCCCCCNC(=O)c1nnc([S+]([O-])CCC)s1` (stereo not drawn) [5-propylsulfinyl-1,3,4-thiadiazole-2-carboxylic acid-hexylamide], for which the “% activity” value with Tilletia caries (20 g active agent per 100 kg) is reported as 100%; in the test with Tilletia caries (50 g active agent per 100 kg), 100%; with Plasmopara viticola (concentration of active agent 0.001 (unit not given)), 95%; with Plasmopara viticola (setting [3]), 99.1%; in the test on Plasmopara viticola (setting [2]), 100%; in the test on Botrytis cinerea, 80%.

As for `CCCS(=O)(=O)c1nnc(C(N)=O)s1` [5-propylsulfonyl-1,3,4-thiadiazole-2-carboxamide], the “root evaluation (1-4)” value turned out to be 1 in the test on Pythium ultimum (20 mg/l soil), 4 in the test with Pythium ultimum (40 mg/l soil) and 4 in the test on Pythium ultimum (80 mg/l soil). The results for the “number of sound peas” value with Pythium ultimum (20 mg/l soil), in the test with Pythium ultimum (40 mg/l soil) and in the test on Pythium ultimum (80 mg/l soil) were 12, 19 and 17, respectively. Further, the “% activity” value in the test on Tilletia caries (10 g active agent per 100 kg) stood at 100%; with Tilletia caries (20 g active agent per 100 kg), 100%; with Tilletia caries (50 g active agent per 100 kg), 100%; with Plasmopara viticola (setting [3]) it was 89%; in the test on Plasmopara viticola (setting [2]), 95%; in the test with Botrytis cinerea it was 94%.

On to `CCCS(=O)(=O)c1nnc(C(=O)N2CCC2)s1` [5-propylsulfonyl-1,3,4-thiadiazole-2-carboxylic acid-N,N-trimethyleneamide], for which the “root evaluation (1-4)” value was determined as 1 in the test with Pythium ultimum (20 mg/l soil); 4 in the test with Pythium ultimum (40 mg/l soil); 4 with Pythium ultimum (80 mg/l soil); 2 in the test on Fusarium avenaceum (25 mg/l soil); 3 with Fusarium avenaceum (50 mg/l soil); 3 in the test on Fusarium avenaceum (100 mg/l soil). The “number of sound peas” value with Pythium ultimum (20 mg/l soil) worked out at 6; with Pythium ultimum (40 mg/l soil) it was 19; in the test on Pythium ultimum (80 mg/l soil) it was 18; with Fusarium avenaceum (25 mg/l soil) it was 11; with Fusarium avenaceum (50 mg/l soil), 17; with Fusarium avenaceum (100 mg/l soil) it was 17. The “% activity” value is given as 100% in the test on Tilletia caries (50 g active agent per 100 kg) and 87% with Botrytis cinerea.

For `CCCS(=O)(=O)c1nnc(C(=O)NC)s1` [5-propylsulfonyl-1,3,4-thiadiazole-2-carboxylic acid-methylamide], the “root evaluation (1-4)” value in the test with Pythium ultimum (20 mg/l soil), with Pythium ultimum (40 mg/l soil) and in the test with Pythium ultimum (80 mg/l soil) was 4 throughout. Moreover, the “number of sound peas” value stood at 19 in the test with Pythium ultimum (20 mg/l soil), 16 in the test with Pythium ultimum (40 mg/l soil) and 15 in the test on Pythium ultimum (80 mg/l soil). Also, the “% activity” value is 99.5% in the test on Tilletia caries (10 g active agent per 100 kg), 99.5% in the test on Tilletia caries (20 g active agent per 100 kg), 100% with Tilletia caries (50 g active agent per 100 kg) and 88% in the test with Botrytis cinerea.

`CCCNC(=O)c1nnc(S(=O)(=O)CCC)s1` [5-propylsulfonyl-1,3,4-thiadiazole-2-carboxylic acid-propylamide]: the results for the “root evaluation (1-4)” value in the test with Pythium ultimum (20 mg/l soil), in the test with Pythium ultimum (40 mg/l soil) and in the test on Pythium ultimum (80 mg/l soil) were 1, 4 and 4, respectively. Moreover, the “number of sound peas” value in the test on Pythium ultimum (20 mg/l soil) worked out at 10; with Pythium ultimum (40 mg/l soil), 16; in the test with Pythium ultimum (80 mg/l soil), 16. The “% activity” value in the test with Tilletia caries (10 g active agent per 100 kg) amounted to 99.5%; in the test on Tilletia caries (20 g active agent per 100 kg), 99.7%; in the test on Tilletia caries (50 g active agent per 100 kg), 100%; in the test on Plasmopara viticola (setting [2]) it was 93%; in the test with Botrytis cinerea, 80%.
